Assay results reported in ChEMBL document CHEMBL3351699, “Diarylthiazole: an antimycobacterial scaffold potentially targeting PrrB-PrrA two-component system” (J Med Chem, 2014).
In brackets after ≈: the same amount, converted by molar mass.

Assays:
[1] = test system: Mycobacterium tuberculosis; assay: Antimicrobial activity against Mycobacterium tuberculosis H37Rv ATCC 27294 assessed as growth inhibition after 5 days by microdilution method; format: functional; settings: H37Rv ATCC 27294, 120 h
[2] = Solubility of the compound; format: physicochemical
[3] = test system: Mycobacterium tuberculosis; assay: Bactericidal activity against Mycobacterium tuberculosis H37Rv ATCC 27294 after 5 days by microdilution method; format: functional; settings: H37Rv ATCC 27294, 120 h
[4] = Unbound fraction in mouse plasma; format: ADME, cell-free
[5] = test system: Mycobacterium tuberculosis; assay: Antimicrobial activity against clinical isolate Mycobacterium tuberculosis JAL assessed as growth inhibition after 7 days by turbidometry; format: functional; settings: 168 h
[6] = Intrinsic clearance in human liver microsomes; format: ADME; settings: read-out: CLH
[7] = Intrinsic clearance in mouse liver microsomes; format: ADME; settings: read-out: CLH
[8] = test system: Mycobacterium tuberculosis; assay: Antimicrobial activity against clinical isolate Mycobacterium tuberculosis ATCC35811 assessed as growth inhibition after 7 days by turbidometry; format: functional; settings: ATCC35811, 168 h
[9] = test system: Mycobacterium tuberculosis; assay: Antimicrobial activity against clinical isolate Mycobacterium tuberculosis ATCC25618 assessed as growth inhibition after 7 days by turbidometry; format: functional; settings: ATCC25618, 168 h
[10] = test system: Mycobacterium tuberculosis; assay: Antimicrobial activity against clinical isolate Mycobacterium tuberculosis Erdman assessed as growth inhibition after 7 days by turbidometry; format: functional; settings: 168 h
[11] = test system: Mycobacterium tuberculosis; assay: Antimicrobial activity against clinical isolate Mycobacterium tuberculosis DKU220 assessed as growth inhibition after 7 days by turbidometry; format: functional; settings: DKU220, 168 h
[12] = test system: Mycobacterium tuberculosis; assay: Antimicrobial activity against clinical isolate Mycobacterium tuberculosis DKU76 assessed as growth inhibition after 7 days by turbidometry; format: functional; settings: DKU76, 168 h
[13] = test system: Mycobacterium tuberculosis; assay: Antimicrobial activity against clinical isolate Mycobacterium tuberculosis Beijing assessed as growth inhibition after 7 days by turbidometry; format: functional; settings: 168 h
[14] = test system: Mycobacterium tuberculosis; assay: Antimicrobial activity against clinical isolate Mycobacterium tuberculosis DKU211 assessed as growth inhibition after 7 days by turbidometry; format: functional; settings: DKU211, 168 h
[15] = test system: Mycobacterium tuberculosis; assay: Antimicrobial activity against clinical isolate Mycobacterium tuberculosis H37Rv ATCC 27294 assessed as growth inhibition after 7 days by turbidometry; format: functional; settings: H37Rv ATCC 27294, 168 h
[16] = test system: Mycobacterium tuberculosis; assay: Antimicrobial activity against clinical isolate Mycobacterium tuberculosis Harlingen assessed as growth inhibition after 7 days by turbidometry; format: functional; settings: 168 h
[17] = test system: Mycobacterium tuberculosis; assay: Antimicrobial activity against clinical isolate Mycobacterium tuberculosis DKU97A assessed as growth inhibition after 7 days by turbidometry; format: functional; settings: 168 h

SMILES	MIC80 [1]	other results
CCCc1cc(-c2nc(-c3ccc(OCCN(C)C)cc3)cs2)ccn1	16 µg/mL (≈ 43.5 µM)	solubility [2]: 279 µM (≈ 102 µg/mL)
CCCc1cc(-c2nc(-c3cccc(F)c3)cs2)ccn1	1 µg/mL (≈ 3.35 µM)	–
CCCc1cc(-c2nc(-c3ccccc3F)cs2)ccn1	2 µg/mL (≈ 6.7 µM)	–
CCCc1cc(-c2nc(-c3ccc(NC(=O)NCC)cc3)cs2)ccn1	1 µg/mL (≈ 2.73 µM)	–
Clc1ccc(-c2csc(-c3ccnc(OCC4CC4)c3)n2)cc1	2 µg/mL (≈ 5.83 µM)	–
CC(=O)N1CCC(c2nc(-c3ccc(Cl)cc3)cs2)CC1	> 32 µg/mL	–
CCCc1cc(-c2nc(-c3ccc(C(F)(F)F)cc3)cs2)ccn1	1 µg/mL (≈ 2.87 µM)	–
CCCc1cc(-c2nc(-c3ccnc(OCCN(C)C)c3)cs2)ccn1	8 µg/mL (≈ 21.7 µM)	–
CCCc1cc(-c2nc(-c3cncnc3)cs2)ccn1	4 µg/mL (≈ 14.2 µM)	–
CCc1cc(-c2nc(-c3ccc(Cl)cc3)cs2)ccn1	2 µg/mL (≈ 6.65 µM)	–
CCCc1cc(-c2ncc(-c3ccnc(OC)c3)s2)ccn1	32 µg/mL (≈ 103 µM)	–
COCc1cc(-c2nc(-c3ccc(Cl)cc3)cs2)ccn1	4 µg/mL (≈ 12.6 µM)	–
CCCc1cc(-c2nc(-c3ccc(OC)cc3)cs2)ccn1	1 µg/mL (≈ 3.22 µM)	–
CCCc1cc(-c2ncc(-c3ccncc3)s2)ccn1	32 µg/mL (≈ 114 µM)	–
CCCc1cc(-c2nc(-c3ccc(Cl)cc3)cs2)ccn1	1 µg/mL (≈ 3.18 µM)	MBC [3]: 2 µg/mL (≈ 6.35 µM)
CCCc1cc(-c2nc(-c3ccc(C(=O)O)cc3)cs2)ccn1	16 µg/mL (≈ 49.3 µM)	–
CCCc1cc(-c2nc(-c3ccc(Cl)cc3)c(C(=O)O)s2)ccn1	> 32 µg/mL	–
CCCc1cc(-c2nc(-c3ccc(Cl)cc3)c(C(N)=O)s2)ccn1	> 32 µg/mL	–
CCCc1cc(-c2nc(-c3ccccc3)cs2)ccn1	1 µg/mL (≈ 3.57 µM)	–
O=c1cc(-c2nc(-c3ccc(Cl)cc3)cs2)cc[nH]1	> 32 µg/mL	–
CCCc1cc(-c2nc(-c3cccc(C(F)(F)F)c3)cs2)ccn1	0.5 µg/mL (≈ 1.44 µM)	–
CCCc1cc(-c2csc(-c3ccnc(CCC)c3)n2)ccn1	0.25 µg/mL (≈ 0.773 µM)	–
CCCc1cc(-c2nc(-c3ccc(C(=O)NS(C)(=O)=O)cc3)cs2)ccn1	32 µg/mL (≈ 79.7 µM)	–
CCCc1cc(-c2nc(-c3ccc(NS(C)(=O)=O)cc3)cs2)ccn1	0.4 µg/mL (≈ 1.07 µM)	fraction unbound [4]: < 0.01; MIC80 [5]: 0.25 µg/mL (≈ 0.669 µM); microsomal CLint [6]: 4.3 µL/min/mg; microsomal CLint [7]: 28.8 µL/min/mg; MIC80 [8]: 0.5 µg/mL (≈ 1.34 µM); MIC80 [9]: 0.13 µg/mL (≈ 0.348 µM); MIC80 [10]: 0.13 µg/mL (≈ 0.348 µM); MIC80 [11]: 0.5 µg/mL (≈ 1.34 µM); solubility [2]: 1.3 µM (≈ 0.486 µg/mL); MIC80 [12]: 1 µg/mL (≈ 2.68 µM); MIC80 [13]: 0.13 µg/mL (≈ 0.348 µM); MIC80 [14]: 0.5 µg/mL (≈ 1.34 µM); MIC80 [15]: 0.25 µg/mL (≈ 0.669 µM); MIC80 [16]: 0.13 µg/mL (≈ 0.348 µM); MIC80 [17]: 0.5 µg/mL (≈ 1.34 µM)
